According to ChEMBL document CHEMBL4196092, “Synthesis and biological evaluation of nannocystin analogues toward understanding the binding role of the (2R,3S)-Epoxide in nannocystin A” (Eur J Med Chem, 2018):
Activity calls are given as the source filed them. The calls are words filed in the database; no cut-off is given here.

How the values were obtained:
[1] = species: Homo sapiens; experiment: Inhibition of eEF1alpha protein expression in human PANC1 cells by Western blot analysis; format: cell-based
[2] = tested on: HepG2; experiment: Antiproliferative activity against human HepG2 cells; format: functional, cell-based
[3] = tested on: PANC-1; experiment: Antiproliferative activity against human PANC1 cells; format: functional, cell-based
[4] = tested on: HCT-116; experiment: Antiproliferative activity against human HCT116 cells; format: functional, cell-based

Row | Structure (SMILES) | inhibition [1] | IC50 [2] [nM] | IC50 [3] [nM] | IC50 [4] [nM]
1 | CC[C@H](C)[C@H]1C(=O)N[C@H](Cc2cc(Cl)c(O)c(Cl)c2)C(=O)N[C@@H](C(C)(C)O)C(=O)O[C@H](c2ccccc2)[C@H](C)/C=C/C=C(\C)[C@H](OC)C[C@@H]2O[C@@]2(C)C(=O)N1C | Active | 3.36 | 12.2 | 2.11
2 | CC[C@H](C)[C@H]1C(=O)N[C@H](Cc2ccc(O)c(Br)c2)C(=O)N[C@@H](C(C)(C)O)C(=O)O[C@H](c2ccccc2)[C@H](C)/C=C/C=C(\C)[C@H](OC)C[C@H]2O[C@]2(C)C(=O)N1C | Active | > 200 | > 200 | > 200
3 | CC[C@H](C)[C@H]1C(=O)N[C@H](Cc2ccc(O)c(Br)c2)C(=O)N[C@@H](C(C)C)C(=O)O[C@H](c2ccccc2)[C@H](C)/C=C/C=C(\C)[C@H](OC)C/C=C(\C)C(=O)N1C | Active | 53.7 | 55.8 | 13.2
4 | CC[C@H](C)[C@H]1C(=O)N[C@H](Cc2cc(Cl)c(O)c(Cl)c2)C(=O)N[C@@H](C(C)(C)O)C(=O)O[C@H](c2ccccc2)[C@H](C)/C=C/C=C(\C)[C@H](OC)C/C=C(\C)C(=O)N1C | Active | 2.75 | 11.3 | 1.6
5 | CC[C@H](C)[C@H]1C(=O)N[C@H](Cc2ccc(O)c(Br)c2)C(=O)N[C@@H](C(C)(C)O)C(=O)O[C@H](c2ccccc2)[C@H](C)/C=C/C=C(\C)[C@H](OC)C/C=C(\C)C(=O)N1C | Active | 5.21 | 11.4 | 3.88
6 | CC[C@H](C)[C@H]1C(=O)N[C@H](Cc2cc(Cl)c(O)c(Cl)c2)C(=O)N[C@@H](C(C)C)C(=O)O[C@H](c2ccccc2)[C@H](C)/C=C/C=C(\C)[C@H](OC)C[C@@H]2O[C@@]2(C)C(=O)N1C | Active | 5.65 | 15.5 | 4.25
7 | CC[C@H](C)[C@H]1C(=O)N[C@H](Cc2cc(Cl)c(O)c(Cl)c2)C(=O)N[C@@H](C(C)C)C(=O)O[C@H](c2ccccc2)[C@H](C)/C=C/C=C(\C)[C@H](OC)C/C=C(\C)C(=O)N1C | Active | 104 | 137 | 21.6
8 | CC[C@H](C)[C@H]1C(=O)N[C@H](Cc2ccc(O)c(Br)c2)C(=O)N[C@@H](C(C)C)C(=O)O[C@H](c2ccccc2)[C@H](C)/C=C/C=C(\C)[C@H](OC)C[C@@H]2O[C@@]2(C)C(=O)N1C | Active | 6.84 | 15.7 | 3.93
9 | CC[C@H](C)[C@H]1C(=O)N[C@H](Cc2ccc(O)c(Br)c2)C(=O)N[C@@H](C(C)(C)O)C(=O)O[C@H](c2ccccc2)[C@H](C)/C=C/C=C(\C)[C@H](OC)C[C@@H]2O[C@@]2(C)C(=O)N1C | Active | 2.98 | 9.61 | 1.59
10 | CC[C@H](C)[C@H]1C(=O)N[C@H](Cc2cc(Cl)c(O)c(Cl)c2)C(=O)N[C@@H](C(C)(C)O)C(=O)O[C@H](c2ccccc2)[C@H](C)/C=C/C=C(\C)[C@H](OC)C[C@H]2O[C@]2(C)C(=O)N1C | Active | > 200 | > 200 | > 200
